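Results reflect a 48-hour exposure of cells in 96-well plates to compound at five concentrations. The concentration for 50% growth inhibition is given as GI50. TGI marks complete inhibition of growth.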
Tests used:
Assay in all cases: NCI-60 cell line screen, 48 h
786-0 renal = tested on: 786-0 renal
A498 renal = tested on: A498 renal
A549 NSCLC = tested on: A549 NSCLC
ACHN renal = tested on: ACHN renal
BT-549 breast = tested on: BT-549 breast
CAKI-1 renal = tested on: CAKI-1 renal
CCRF-CEM leukemia = tested on: CCRF-CEM leukemia
COLO 205 colon = tested on: COLO 205 colon
DU-145 prostate = tested on: DU-145 prostate
EKVX NSCLC = tested on: EKVX NSCLC
HCC-2998 colon = tested on: HCC-2998 colon
HCT-116 colon = tested on: HCT-116 colon
HCT-15 colon = tested on: HCT-15 colon
HL-60(TB) leukemia = tested on: HL-60(TB) leukemia
HOP-62 NSCLC = tested on: HOP-62 NSCLC
HOP-92 NSCLC = tested on: HOP-92 NSCLC
HS 578T breast = tested on: HS 578T breast
HT29 colon = tested on: HT29 colon
K-562 leukemia = tested on: K-562 leukemia
KM12 colon = tested on: KM12 colon
LOX IMVI melanoma = tested on: LOX IMVI melanoma
M14 melanoma = tested on: M14 melanoma
MCF7 breast = tested on: MCF7 breast
MDA-MB-231 breast = tested on: MDA-MB-231 breast
MDA-MB-435 = tested on: MDA-MB-435
MOLT-4 leukemia = tested on: MOLT-4 leukemia
NCI-H23 lung = tested on: NCI-H23 lung
NCI-H460 lung = tested on: NCI-H460 lung
NCI-H522 lung = tested on: NCI-H522 lung
NCI/ADR-RES ovarian = tested on: NCI/ADR-RES ovarian
OVCAR-3 ovarian = tested on: OVCAR-3 ovarian
OVCAR-5 ovarian = tested on: OVCAR-5 ovarian
OVCAR-8 ovarian = tested on: OVCAR-8 ovarian
PC-3 prostate = tested on: PC-3 prostate
RPMI-8226 leukemia = tested on: RPMI-8226 leukemia
RXF 393 renal = tested on: RXF 393 renal
SF-268 CNS = tested on: SF-268 CNS
SF-295 CNS = tested on: SF-295 CNS
SF-539 CNS = tested on: SF-539 CNS
SK-MEL-2 melanoma = tested on: SK-MEL-2 melanoma
SK-MEL-28 melanoma = tested on: SK-MEL-28 melanoma
SK-MEL-5 melanoma = tested on: SK-MEL-5 melanoma
SK-OV-3 ovarian = tested on: SK-OV-3 ovarian
SN12C renal = tested on: SN12C renal
SNB-19 CNS = tested on: SNB-19 CNS
SNB-75 CNS = tested on: SNB-75 CNS
SR leukemia = tested on: SR leukemia
SW-620 colon = tested on: SW-620 colon
T-47D breast = tested on: T-47D breast
TK-10 renal = tested on: TK-10 renal
U251 CNS = tested on: U251 CNS
UACC-257 melanoma = tested on: UACC-257 melanoma
UACC-62 melanoma = tested on: UACC-62 melanoma
UO-31 renal = tested on: UO-31 renal
IGROV1 ovarian = tested on: IGROV1 ovarian
NCI-H226 lung = tested on: NCI-H226 lung
OVCAR-4 ovarian = tested on: OVCAR-4 ovarian

## NS(=O)(=O)c1ccc(N(/C=C/C(=O)C(F)(F)F)Cc2ccc(Cl)cc2)cc1
786-0 renal
  GI50: 13.2 µM
  TGI: 27 µM
A498 renal
  GI50: 17.4 µM
  TGI: 41.2 µM
A549 NSCLC
  GI50: 27.7 µM
  TGI: > 100 µM
ACHN renal
  GI50: 31.7 µM
  TGI: 78.1 µM
BT-549 breast
  GI50: 23.6 µM
  TGI: 62.6 µM
CAKI-1 renal
  GI50: 24.4 µM
  TGI: 72.7 µM
CCRF-CEM leukemia
  GI50: 16 µM
  TGI: 40.3 µM
COLO 205 colon
  GI50: 37.3 µM
  TGI: > 100 µM
DU-145 prostate
  GI50: 22.1 µM
  TGI: 66 µM
EKVX NSCLC
  GI50: 22.5 µM
  TGI: 49.6 µM
HCC-2998 colon
  GI50: 18.1 µM
  TGI: 35.5 µM
HCT-116 colon
  GI50: 14.7 µM
  TGI: 28.1 µM
HCT-15 colon
  GI50: 31.1 µM
  TGI: 87.2 µM
HL-60(TB) leukemia
  GI50: 39 µM
  TGI: 78.3 µM
HOP-62 NSCLC
  GI50: 20 µM
  TGI: 53.8 µM
HOP-92 NSCLC
  GI50: 16.1 µM
  TGI: 40.9 µM
HS 578T breast
  GI50: 38.1 µM
  TGI: > 100 µM
HT29 colon
  GI50: 43.9 µM
  TGI: > 100 µM
K-562 leukemia
  GI50: 38.9 µM
  TGI: > 100 µM
KM12 colon
  GI50: 22.7 µM
  TGI: 74.5 µM
LOX IMVI melanoma
  GI50: 21.8 µM
  TGI: 42.9 µM
M14 melanoma
  GI50: 21 µM
  TGI: 43.4 µM
MCF7 breast
  GI50: 93.9 µM
  TGI: > 100 µM
MDA-MB-231 breast
  GI50: 18.3 µM
  TGI: 57.8 µM
MDA-MB-435
  GI50: 30.6 µM
  TGI: 96.5 µM
MOLT-4 leukemia
  GI50: 40.1 µM
  TGI: > 100 µM
NCI-H23 lung
  GI50: 21.8 µM
  TGI: 64.3 µM
NCI-H460 lung
  GI50: 67.9 µM
  TGI: > 100 µM
NCI-H522 lung
  GI50: 12.6 µM
  TGI: 38.4 µM
NCI/ADR-RES ovarian
  GI50: 15.3 µM
  TGI: 54.9 µM
OVCAR-3 ovarian
  GI50: 30.3 µM
  TGI: > 100 µM
OVCAR-5 ovarian
  GI50: 28.7 µM
  TGI: > 100 µM
OVCAR-8 ovarian
  GI50: 24.3 µM
  TGI: 63.1 µM
PC-3 prostate
  GI50: 19.6 µM
  TGI: 59 µM
RPMI-8226 leukemia
  GI50: 26.2 µM
  TGI: 89.1 µM
RXF 393 renal
  GI50: 16 µM
  TGI: 47 µM
SF-268 CNS
  GI50: 74.3 µM
  TGI: > 100 µM
SF-295 CNS
  GI50: 35.1 µM
  TGI: > 100 µM
SF-539 CNS
  GI50: 17.4 µM
  TGI: 34 µM
SK-MEL-2 melanoma
  GI50: 27.2 µM
  TGI: 62 µM
SK-MEL-28 melanoma
  GI50: 29.3 µM
  TGI: > 100 µM
SK-MEL-5 melanoma
  GI50: 19.2 µM
  TGI: 38 µM
SK-OV-3 ovarian
  GI50: 36 µM
  TGI: > 100 µM
SN12C renal
  GI50: 21.1 µM
  TGI: 56.2 µM
SNB-19 CNS
  GI50: 41.9 µM
  TGI: > 100 µM
SNB-75 CNS
  GI50: 32.2 µM
  TGI: 65.1 µM
SR leukemia
  GI50: 20.5 µM
  TGI: 43.5 µM
SW-620 colon
  GI50: 30.5 µM
  TGI: > 100 µM
T-47D breast
  GI50: 20.8 µM
  TGI: 97.5 µM
TK-10 renal
  GI50: 23.5 µM
  TGI: 55.8 µM
U251 CNS
  GI50: 26.5 µM
  TGI: 75.8 µM
UACC-257 melanoma
  GI50: 24.1 µM
  TGI: 52.8 µM
UACC-62 melanoma
  GI50: 20.3 µM
  TGI: 45.3 µM
UO-31 renal
  GI50: 15.8 µM
  TGI: 44.6 µM

## COc1cc2c(cc1OC)CC1c3cc(OC)c(OC)cc3CCN1CC2 (centres undefined)
786-0 renal
  TGI: > 100 µM
A498 renal
  TGI: > 100 µM
A549 NSCLC
  TGI: > 100 µM
ACHN renal
  TGI: > 100 µM
BT-549 breast
  TGI: > 100 µM
CAKI-1 renal
  TGI: > 100 µM
CCRF-CEM leukemia
  TGI: > 100 µM
COLO 205 colon
  TGI: > 100 µM
DU-145 prostate
  TGI: > 100 µM
EKVX NSCLC
  TGI: > 100 µM
HCC-2998 colon
  TGI: > 100 µM
HCT-116 colon
  TGI: > 100 µM
HCT-15 colon
  TGI: > 100 µM
HL-60(TB) leukemia
  TGI: > 100 µM
HOP-62 NSCLC
  TGI: > 100 µM
HOP-92 NSCLC
  TGI: > 100 µM
HS 578T breast
  TGI: > 100 µM
HT29 colon
  TGI: > 100 µM
IGROV1 ovarian
  TGI: > 100 µM
K-562 leukemia
  TGI: > 100 µM
KM12 colon
  TGI: > 100 µM
M14 melanoma
  TGI: > 100 µM
MCF7 breast
  TGI: > 100 µM
MDA-MB-231 breast
  TGI: > 100 µM
MDA-MB-435
  TGI: > 100 µM
MOLT-4 leukemia
  TGI: > 100 µM
NCI-H226 lung
  TGI: > 100 µM
NCI-H23 lung
  TGI: 68 µM
NCI-H460 lung
  TGI: > 100 µM
NCI-H522 lung
  TGI: > 100 µM
NCI/ADR-RES ovarian
  TGI: > 100 µM
OVCAR-3 ovarian
  TGI: > 100 µM
OVCAR-4 ovarian
  TGI: > 100 µM
OVCAR-5 ovarian
  TGI: > 100 µM
OVCAR-8 ovarian
  TGI: > 100 µM
PC-3 prostate
  TGI: > 100 µM
RPMI-8226 leukemia
  TGI: > 100 µM
RXF 393 renal
  TGI: > 100 µM
SF-268 CNS
  TGI: > 100 µM
SF-295 CNS
  TGI: > 100 µM
SF-539 CNS
  TGI: > 100 µM
SK-MEL-2 melanoma
  TGI: > 100 µM
SK-MEL-28 melanoma
  TGI: > 100 µM
SK-MEL-5 melanoma
  TGI: > 100 µM
SK-OV-3 ovarian
  TGI: > 100 µM
SN12C renal
  TGI: > 100 µM
SNB-19 CNS
  TGI: 76.2 µM
SNB-75 CNS
  TGI: > 100 µM
SR leukemia
  TGI: > 100 µM
SW-620 colon
  TGI: > 100 µM
T-47D breast
  TGI: > 100 µM
TK-10 renal
  TGI: > 100 µM
U251 CNS
  TGI: > 100 µM
UACC-257 melanoma
  TGI: > 100 µM
UACC-62 melanoma
  TGI: > 100 µM
UO-31 renal
  TGI: > 100 µM

Reference: PubChem BioAssay (NCI)
